In the NIST ThermoML archive (doi:10.1016/j.jct.2008.12.003):
± gives the expanded uncertainty stated by the source.

Conditions: 101.33 kPa, Liquid, Pycnometric method

| Compound | mass density (303.15 K) | mass density (313.15 K) | mass density (323.15 K) | mass density (333.15 K) | mass density (343.15 K) |
| --- | --- | --- | --- | --- | --- |
| OCCOCCO [diethylene glycol] | 1109 ± 1 kg/m3 | 1103 ± 1 kg/m3 | 1095 ± 1 kg/m3 | 1088 ± 1 kg/m3 | 1081 ± 1 kg/m3 |
| OCCCOCCCO [4-oxa-1,7-heptanediol] | 1014 ± 1 kg/m3 | 1007 ± 1 kg/m3 | 999 ± 1 kg/m3 | 991 ± 1 kg/m3 | 984 ± 1 kg/m3 |
